From the supplement of paper PMC12463676, “Small-molecule dissolution of stress granules by redox modulation benefits ALS models” (Nature Chemical Biology, 2025)

How the values were obtained:
[1] = compound: NC(=O)CCCCC1CCSS1 [lipoamide]; assay: thermal stability z-score vs DMSO; higher = more thermally stabilized by treatment; conditions: HeLa, lipoamide concentration 100 µM
Method: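 Cellular thermal proteome profiling in HeLa cells. Cells were treated with 100 µM lipoamide for 1 h, with or without 1 mM arsenate for a further 1 h, then heated to ten temperatures (37-66.3 °C), and soluble protein was quantified by TMT mass spectrometry relative to 0.1% DMSO controls. The thermal stability score (sum of log2 fold changes minus the abundance score) was transformed to a z-score; mean of n = 3 experiments.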

[2] = compound: O=[As]([O-])(O)O.[K+] [potassium arsenate]; assay: as above; conditions: HeLa; arsenate concentration 1 mM
Method: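 Cellular thermal proteome profiling in HeLa cells treated with 1 mM arsenate for 1 h (DMSO pretreatment), heated to ten temperatures (37-66.3 °C). Soluble protein was quantified by TMT mass spectrometry relative to DMSO controls; the thermal stability score was transformed to a z-score; mean of n = 3 experiments.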

[3] = arsenate co-treatment: 1 mM arsenate 1 h
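Also: each temperature applied for 3 min, abundance score taken as mean log2 fold change at the two lowest temperatures, z-score obtained by mean subtraction and division by SD.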

HACD3 (UniProt Q9P035)
thermal stability z-score [1, 3]: -1.92 | thermal stability z-score ([1]; arsenate co-treatment: none): -0.722 | thermal stability z-score [2]: -1.47

ANXA8L1 (UniProt Q5VT79)
thermal stability z-score [1, 3]: -0.11 | thermal stability z-score ([1]; arsenate co-treatment: none): -0.0845 | thermal stability z-score [2]: 0.00565

SEC62 (UniProt Q99442)
thermal stability z-score [1, 3]: 0.39 | thermal stability z-score ([1]; arsenate co-treatment: none): 0.266 | thermal stability z-score [2]: -0.75

GINS4 (UniProt Q9BRT9)
thermal stability z-score [1, 3]: 0.2 | thermal stability z-score ([1]; arsenate co-treatment: none): -0.173 | thermal stability z-score [2]: -0.614

MID1 (UniProt O15344)
thermal stability z-score [1, 3]: -0.525 | thermal stability z-score ([1]; arsenate co-treatment: none): -0.224 | thermal stability z-score [2]: -0.963

PFKM (UniProt P08237)
Sequence of UniProt P08237 (P08237 whole entry): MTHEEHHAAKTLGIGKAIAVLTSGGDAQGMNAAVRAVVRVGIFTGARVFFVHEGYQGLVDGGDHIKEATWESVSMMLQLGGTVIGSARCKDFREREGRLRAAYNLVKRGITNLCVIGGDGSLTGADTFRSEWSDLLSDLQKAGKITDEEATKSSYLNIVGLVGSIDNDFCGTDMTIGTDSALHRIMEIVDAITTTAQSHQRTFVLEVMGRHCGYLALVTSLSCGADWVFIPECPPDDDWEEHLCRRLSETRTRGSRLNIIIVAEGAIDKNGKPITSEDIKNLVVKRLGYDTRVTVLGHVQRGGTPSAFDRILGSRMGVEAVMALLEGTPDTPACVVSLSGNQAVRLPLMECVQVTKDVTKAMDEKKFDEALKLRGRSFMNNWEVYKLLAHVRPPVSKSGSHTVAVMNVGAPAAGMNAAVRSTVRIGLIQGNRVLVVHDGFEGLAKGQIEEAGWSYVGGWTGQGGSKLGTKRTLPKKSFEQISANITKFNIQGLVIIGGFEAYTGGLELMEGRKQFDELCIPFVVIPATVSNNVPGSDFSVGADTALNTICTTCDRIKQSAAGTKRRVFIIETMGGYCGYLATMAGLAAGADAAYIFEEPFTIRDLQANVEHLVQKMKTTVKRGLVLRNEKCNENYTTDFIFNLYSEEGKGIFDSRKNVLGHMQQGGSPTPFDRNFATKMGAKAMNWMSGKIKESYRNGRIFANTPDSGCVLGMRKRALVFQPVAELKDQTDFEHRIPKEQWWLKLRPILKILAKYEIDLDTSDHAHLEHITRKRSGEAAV
thermal stability z-score [1, 3]: 0.24 | thermal stability z-score ([1]; arsenate co-treatment: none): 0.235 | thermal stability z-score [2]: -0.134

POGZ (UniProt Q7Z3K3)
Sequence of UniProt Q7Z3K3 (Q7Z3K3 whole entry): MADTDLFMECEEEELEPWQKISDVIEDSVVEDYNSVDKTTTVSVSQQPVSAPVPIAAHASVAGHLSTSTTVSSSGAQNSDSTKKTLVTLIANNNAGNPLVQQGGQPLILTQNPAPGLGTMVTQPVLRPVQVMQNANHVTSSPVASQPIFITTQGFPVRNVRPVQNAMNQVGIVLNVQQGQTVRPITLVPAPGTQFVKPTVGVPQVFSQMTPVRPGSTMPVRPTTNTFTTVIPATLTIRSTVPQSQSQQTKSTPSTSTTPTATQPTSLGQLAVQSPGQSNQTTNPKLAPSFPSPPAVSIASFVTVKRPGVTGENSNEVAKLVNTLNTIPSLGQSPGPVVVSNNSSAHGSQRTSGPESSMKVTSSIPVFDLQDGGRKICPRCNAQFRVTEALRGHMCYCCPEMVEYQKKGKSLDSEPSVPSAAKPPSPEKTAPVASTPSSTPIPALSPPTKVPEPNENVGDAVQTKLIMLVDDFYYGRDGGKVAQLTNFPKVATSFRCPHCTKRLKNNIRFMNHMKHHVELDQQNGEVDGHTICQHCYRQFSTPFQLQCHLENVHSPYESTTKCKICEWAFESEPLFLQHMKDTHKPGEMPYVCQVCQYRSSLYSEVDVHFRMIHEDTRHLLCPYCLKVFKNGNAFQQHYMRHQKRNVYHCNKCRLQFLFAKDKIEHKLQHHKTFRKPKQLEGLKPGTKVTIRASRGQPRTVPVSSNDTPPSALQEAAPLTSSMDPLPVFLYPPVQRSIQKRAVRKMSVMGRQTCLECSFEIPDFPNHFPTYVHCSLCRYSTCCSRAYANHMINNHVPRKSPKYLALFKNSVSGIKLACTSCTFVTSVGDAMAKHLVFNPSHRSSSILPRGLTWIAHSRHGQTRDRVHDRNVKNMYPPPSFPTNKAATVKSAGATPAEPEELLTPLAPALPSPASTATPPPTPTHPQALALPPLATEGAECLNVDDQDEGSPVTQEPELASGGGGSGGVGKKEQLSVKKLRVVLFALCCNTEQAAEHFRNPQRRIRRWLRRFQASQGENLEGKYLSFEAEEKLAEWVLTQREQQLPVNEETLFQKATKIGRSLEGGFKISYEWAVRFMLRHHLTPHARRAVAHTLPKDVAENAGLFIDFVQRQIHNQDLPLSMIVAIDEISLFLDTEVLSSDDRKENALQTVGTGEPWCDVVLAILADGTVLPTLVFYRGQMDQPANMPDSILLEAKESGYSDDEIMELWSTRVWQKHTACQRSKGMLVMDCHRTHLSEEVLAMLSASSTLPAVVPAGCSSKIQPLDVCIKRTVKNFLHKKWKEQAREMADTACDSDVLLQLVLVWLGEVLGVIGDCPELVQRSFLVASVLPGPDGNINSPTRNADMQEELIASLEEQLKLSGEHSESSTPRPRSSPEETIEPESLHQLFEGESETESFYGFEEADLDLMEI
thermal stability z-score [1, 3]: -0.198 | thermal stability z-score ([1]; arsenate co-treatment: none): 0.0592 | thermal stability z-score [2]: -0.422

CUL5 (UniProt Q93034)
thermal stability z-score [1, 3]: 0.631 | thermal stability z-score ([1]; arsenate co-treatment: none): 0.636 | thermal stability z-score [2]: 0.131

AUP1 (UniProt Q9Y679)
thermal stability z-score [1, 3]: -0.649 | thermal stability z-score ([1]; arsenate co-treatment: none): -1.09 | thermal stability z-score [2]: -0.628

GSPT1 (UniProt P15170)
thermal stability z-score [1, 3]: -0.00711 | thermal stability z-score ([1]; arsenate co-treatment: none): 0.472 | thermal stability z-score [2]: 0.226

C15ORF40 (UniProt Q8WUR7)
thermal stability z-score [1, 3]: 0.334 | thermal stability z-score ([1]; arsenate co-treatment: none): -0.344 | thermal stability z-score [2]: -1.19

CDC6 (UniProt Q99741)
thermal stability z-score [1, 3]: -0.0605 | thermal stability z-score ([1]; arsenate co-treatment: none): 0.0639 | thermal stability z-score [2]: -0.258

FKBP4 (UniProt Q02790)
thermal stability z-score [1, 3]: 0.198 | thermal stability z-score ([1]; arsenate co-treatment: none): 0.244 | thermal stability z-score [2]: 0.191

ZNF451 (UniProt Q9Y4E5)
thermal stability z-score [1, 3]: 0.0272 | thermal stability z-score ([1]; arsenate co-treatment: none): 0.0565 | thermal stability z-score [2]: 0.171

MED17 (UniProt Q9NVC6)
thermal stability z-score [1, 3]: 0.255 | thermal stability z-score ([1]; arsenate co-treatment: none): -0.466 | thermal stability z-score [2]: -0.697

CPLX1 (UniProt O14810)
thermal stability z-score [1, 3]: 0.844 | thermal stability z-score ([1]; arsenate co-treatment: none): 1.45 | thermal stability z-score [2]: -0.346

POLR3A (UniProt O14802)
thermal stability z-score [1, 3]: 0.0126 | thermal stability z-score ([1]; arsenate co-treatment: none): -0.887 | thermal stability z-score [2]: -1.69

MED16 (UniProt Q9Y2X0)
thermal stability z-score [1, 3]: -0.0673 | thermal stability z-score ([1]; arsenate co-treatment: none): 0.0989 | thermal stability z-score [2]: -0.0825

TRIP12 (UniProt Q14669)
thermal stability z-score [1, 3]: -0.227 | thermal stability z-score ([1]; arsenate co-treatment: none): -0.162 | thermal stability z-score [2]: 0.157

SELO (UniProt Q9BVL4)
thermal stability z-score [1, 3]: -0.214 | thermal stability z-score ([1]; arsenate co-treatment: none): -0.211 | thermal stability z-score [2]: -0.536

SLC25A19 (UniProt Q9HC21)
thermal stability z-score [1, 3]: -0.0932 | thermal stability z-score ([1]; arsenate co-treatment: none): 0.281 | thermal stability z-score [2]: -0.374

HARS (UniProt P12081)
thermal stability z-score [1, 3]: -0.0978 | thermal stability z-score ([1]; arsenate co-treatment: none): -0.228 | thermal stability z-score [2]: 1.38

HNRNPAB (UniProt Q99729)
Sequence of UniProt Q99729 (Q99729 whole entry): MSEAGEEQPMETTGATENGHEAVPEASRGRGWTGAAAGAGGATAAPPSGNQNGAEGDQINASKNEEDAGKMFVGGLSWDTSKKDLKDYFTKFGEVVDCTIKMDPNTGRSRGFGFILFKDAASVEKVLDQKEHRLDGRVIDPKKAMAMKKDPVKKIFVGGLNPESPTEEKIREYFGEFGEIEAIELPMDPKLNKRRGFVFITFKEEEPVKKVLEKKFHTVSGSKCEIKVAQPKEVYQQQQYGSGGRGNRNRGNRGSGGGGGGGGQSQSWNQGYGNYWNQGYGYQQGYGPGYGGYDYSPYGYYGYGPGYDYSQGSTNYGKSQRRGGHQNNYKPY
thermal stability z-score [1, 3]: 0.89 | thermal stability z-score ([1]; arsenate co-treatment: none): 0.554 | thermal stability z-score [2]: -0.447

XXYLT1 (UniProt Q8NBI6)
thermal stability z-score [1, 3]: -0.751 | thermal stability z-score ([1]; arsenate co-treatment: none): -2.13 | thermal stability z-score [2]: 0.948

UniProt E7ENQ6
thermal stability z-score [1, 3]: -0.462 | thermal stability z-score ([1]; arsenate co-treatment: none): -0.272 | thermal stability z-score [2]: 0.151

GLTSCR2 (UniProt Q9NZM5)
thermal stability z-score [1, 3]: 0.409 | thermal stability z-score ([1]; arsenate co-treatment: none): -0.522 | thermal stability z-score [2]: -2.53

SMNDC1 (UniProt O75940)
thermal stability z-score [1, 3]: -0.102 | thermal stability z-score ([1]; arsenate co-treatment: none): -0.117 | thermal stability z-score [2]: -0.5

SCAMP2 (UniProt O15127)
thermal stability z-score [1, 3]: 0.21 | thermal stability z-score ([1]; arsenate co-treatment: none): -0.804 | thermal stability z-score [2]: -1.4

RHOF (UniProt Q9HBH0)
thermal stability z-score [1, 3]: 0.288 | thermal stability z-score ([1]; arsenate co-treatment: none): 0.301 | thermal stability z-score [2]: 0.478

LAMP1 (UniProt P11279)
Sequence of UniProt P11279 (P11279 whole entry): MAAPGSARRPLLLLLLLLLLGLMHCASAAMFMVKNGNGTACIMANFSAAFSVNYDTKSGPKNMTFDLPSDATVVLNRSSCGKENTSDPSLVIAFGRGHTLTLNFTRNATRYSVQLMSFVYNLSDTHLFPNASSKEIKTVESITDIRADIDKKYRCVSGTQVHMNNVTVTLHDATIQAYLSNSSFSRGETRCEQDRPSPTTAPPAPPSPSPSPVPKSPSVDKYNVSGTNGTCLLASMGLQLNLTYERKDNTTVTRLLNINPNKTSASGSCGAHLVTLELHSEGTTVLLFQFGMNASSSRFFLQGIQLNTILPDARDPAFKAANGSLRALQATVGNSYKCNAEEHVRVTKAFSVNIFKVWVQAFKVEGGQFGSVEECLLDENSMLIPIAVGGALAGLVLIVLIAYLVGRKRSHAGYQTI
thermal stability z-score [1, 3]: 0.396 | thermal stability z-score ([1]; arsenate co-treatment: none): 0.531 | thermal stability z-score [2]: -0.0209

TYW5 (UniProt A2RUC4)
thermal stability z-score [1, 3]: 0.502 | thermal stability z-score ([1]; arsenate co-treatment: none): 0.336 | thermal stability z-score [2]: 0.66

GPATCH2 (UniProt Q9NW75)
Sequence of UniProt Q9NW75 (Q9NW75 whole entry): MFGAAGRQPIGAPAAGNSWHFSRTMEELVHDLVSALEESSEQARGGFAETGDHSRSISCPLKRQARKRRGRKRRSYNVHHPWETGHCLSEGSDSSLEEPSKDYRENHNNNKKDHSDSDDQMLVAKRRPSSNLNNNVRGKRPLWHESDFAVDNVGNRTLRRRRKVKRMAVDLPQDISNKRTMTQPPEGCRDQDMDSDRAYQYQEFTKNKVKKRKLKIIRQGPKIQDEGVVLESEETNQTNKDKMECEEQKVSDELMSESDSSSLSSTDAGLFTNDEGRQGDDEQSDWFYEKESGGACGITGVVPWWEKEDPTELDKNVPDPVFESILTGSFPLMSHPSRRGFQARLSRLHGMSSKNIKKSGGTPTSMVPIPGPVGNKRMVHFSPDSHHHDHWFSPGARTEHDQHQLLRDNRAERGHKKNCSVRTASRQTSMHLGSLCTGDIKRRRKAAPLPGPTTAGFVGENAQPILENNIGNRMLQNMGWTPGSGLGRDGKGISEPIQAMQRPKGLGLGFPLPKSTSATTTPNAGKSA
thermal stability z-score [1, 3]: -0.115 | thermal stability z-score ([1]; arsenate co-treatment: none): 0.00549 | thermal stability z-score [2]: 0.239

TRMT1L (UniProt Q7Z2T5)
thermal stability z-score [1, 3]: 0.385 | thermal stability z-score ([1]; arsenate co-treatment: none): 0.0926 | thermal stability z-score [2]: -1.26

SCARB1 (UniProt Q8WTV0)
thermal stability z-score [1, 3]: 0.0511 | thermal stability z-score ([1]; arsenate co-treatment: none): 0.144 | thermal stability z-score [2]: 0.58

CWC22 (UniProt Q9HCG8)
thermal stability z-score [1, 3]: -0.0873 | thermal stability z-score ([1]; arsenate co-treatment: none): 0.0387 | thermal stability z-score [2]: -0.263

PSME2 (UniProt Q9UL46)
thermal stability z-score [1, 3]: 0.493 | thermal stability z-score ([1]; arsenate co-treatment: none): 0.0915 | thermal stability z-score [2]: 0.951

GPATCH8 (UniProt Q9UKJ3)
thermal stability z-score [1, 3]: 1.48 | thermal stability z-score ([1]; arsenate co-treatment: none): 0.761 | thermal stability z-score [2]: -0.238

PARD6B (UniProt Q9BYG5)
thermal stability z-score [1, 3]: 0.233 | thermal stability z-score ([1]; arsenate co-treatment: none): -0.00454 | thermal stability z-score [2]: -0.0258

SNAPC3 (UniProt Q92966)
Sequence of UniProt Q92966 (Q92966 whole entry): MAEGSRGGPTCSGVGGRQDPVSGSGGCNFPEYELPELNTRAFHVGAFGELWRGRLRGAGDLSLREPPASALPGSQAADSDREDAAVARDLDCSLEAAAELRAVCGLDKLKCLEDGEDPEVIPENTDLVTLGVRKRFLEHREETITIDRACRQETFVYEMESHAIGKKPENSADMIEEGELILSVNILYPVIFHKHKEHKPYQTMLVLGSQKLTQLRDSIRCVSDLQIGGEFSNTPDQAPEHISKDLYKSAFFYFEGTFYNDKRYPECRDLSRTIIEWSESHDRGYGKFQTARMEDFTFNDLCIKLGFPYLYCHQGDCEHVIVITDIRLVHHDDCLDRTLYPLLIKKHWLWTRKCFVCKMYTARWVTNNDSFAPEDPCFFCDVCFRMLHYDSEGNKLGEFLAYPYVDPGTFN
thermal stability z-score [1, 3]: -0.219 | thermal stability z-score ([1]; arsenate co-treatment: none): -0.258 | thermal stability z-score [2]: -0.108

SLC35D1 (UniProt Q9NTN3)
thermal stability z-score [1, 3]: -2.29 | thermal stability z-score ([1]; arsenate co-treatment: none): -2.36 | thermal stability z-score [2]: -1.34

INPP5K (UniProt Q9BT40)
thermal stability z-score [1, 3]: -0.0181 | thermal stability z-score ([1]; arsenate co-treatment: none): 0.225 | thermal stability z-score [2]: 0.268

RAB29 (UniProt O14966)
thermal stability z-score [1, 3]: 0.114 | thermal stability z-score ([1]; arsenate co-treatment: none): -0.0606 | thermal stability z-score [2]: 0.157

FAR1 (UniProt Q8WVX9)
thermal stability z-score [1, 3]: -0.177 | thermal stability z-score ([1]; arsenate co-treatment: none): -0.0751 | thermal stability z-score [2]: 0.544

IQSEC1 (UniProt Q6DN90)
thermal stability z-score [1, 3]: 0.165 | thermal stability z-score ([1]; arsenate co-treatment: none): 0.212 | thermal stability z-score [2]: 0.159

TERF2IP (UniProt Q9NYB0)
thermal stability z-score [1, 3]: -0.302 | thermal stability z-score ([1]; arsenate co-treatment: none): 0.33 | thermal stability z-score [2]: -0.131

PNPLA8 (UniProt Q9NP80)
thermal stability z-score [1, 3]: 0.00209 | thermal stability z-score ([1]; arsenate co-treatment: none): 0.148 | thermal stability z-score [2]: -0.332

FAM118B (UniProt Q9BPY3)
thermal stability z-score [1, 3]: 0.49 | thermal stability z-score ([1]; arsenate co-treatment: none): -0.244 | thermal stability z-score [2]: 0.57

PLIN4 (UniProt Q96Q06)
thermal stability z-score [1, 3]: 0.188 | thermal stability z-score ([1]; arsenate co-treatment: none): 0.324 | thermal stability z-score [2]: 0.741

PTPRF (UniProt P10586)
thermal stability z-score [1, 3]: -0.381 | thermal stability z-score ([1]; arsenate co-treatment: none): -0.381 | thermal stability z-score [2]: -0.656

PI4KA (UniProt P42356)
thermal stability z-score [1, 3]: -0.343 | thermal stability z-score ([1]; arsenate co-treatment: none): -0.333 | thermal stability z-score [2]: -0.732

AACS (UniProt Q86V21)
Sequence of UniProt Q86V21 (Q86V21 whole entry): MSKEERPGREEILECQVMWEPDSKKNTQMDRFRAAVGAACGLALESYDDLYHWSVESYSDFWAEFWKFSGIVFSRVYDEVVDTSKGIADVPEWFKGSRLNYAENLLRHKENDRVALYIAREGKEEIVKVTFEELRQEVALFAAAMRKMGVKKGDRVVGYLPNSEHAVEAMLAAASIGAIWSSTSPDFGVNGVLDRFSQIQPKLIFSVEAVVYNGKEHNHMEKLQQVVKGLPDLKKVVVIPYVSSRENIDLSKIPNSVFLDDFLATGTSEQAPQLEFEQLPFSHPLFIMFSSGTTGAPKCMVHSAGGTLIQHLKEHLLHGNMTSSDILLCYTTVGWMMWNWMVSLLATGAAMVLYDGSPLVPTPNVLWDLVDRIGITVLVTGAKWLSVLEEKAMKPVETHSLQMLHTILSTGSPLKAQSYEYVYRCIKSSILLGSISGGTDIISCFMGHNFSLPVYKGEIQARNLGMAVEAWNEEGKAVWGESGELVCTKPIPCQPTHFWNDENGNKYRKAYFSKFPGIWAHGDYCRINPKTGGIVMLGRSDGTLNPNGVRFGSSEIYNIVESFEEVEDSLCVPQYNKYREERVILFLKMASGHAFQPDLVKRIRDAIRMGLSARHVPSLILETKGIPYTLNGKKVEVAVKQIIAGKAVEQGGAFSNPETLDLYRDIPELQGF
thermal stability z-score [1, 3]: -0.257 | thermal stability z-score ([1]; arsenate co-treatment: none): -0.135 | thermal stability z-score [2]: 0.635

CDC42EP1 (UniProt Q00587)
Sequence of UniProt Q00587 (Q00587 whole entry): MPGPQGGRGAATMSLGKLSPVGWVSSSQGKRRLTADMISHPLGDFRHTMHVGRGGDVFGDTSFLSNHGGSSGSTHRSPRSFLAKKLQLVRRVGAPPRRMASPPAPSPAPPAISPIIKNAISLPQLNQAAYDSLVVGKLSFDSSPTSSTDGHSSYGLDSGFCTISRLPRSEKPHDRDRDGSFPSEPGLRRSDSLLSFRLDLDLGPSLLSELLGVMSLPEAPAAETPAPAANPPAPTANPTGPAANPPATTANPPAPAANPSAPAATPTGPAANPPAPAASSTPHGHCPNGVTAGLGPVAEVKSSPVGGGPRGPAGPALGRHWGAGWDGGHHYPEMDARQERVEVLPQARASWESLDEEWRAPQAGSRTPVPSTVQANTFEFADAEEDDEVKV
thermal stability z-score [1, 3]: -0.844 | thermal stability z-score ([1]; arsenate co-treatment: none): -0.776 | thermal stability z-score [2]: 0.213

SCLY (UniProt Q96I15)
thermal stability z-score [1, 3]: 0.111 | thermal stability z-score ([1]; arsenate co-treatment: none): 0.27 | thermal stability z-score [2]: -0.415

ZNF706 (UniProt Q9Y5V0)
Sequence of UniProt Q9Y5V0 (Q9Y5V0 whole entry): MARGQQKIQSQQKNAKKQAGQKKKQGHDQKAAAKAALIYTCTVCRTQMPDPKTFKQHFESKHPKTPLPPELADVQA
thermal stability z-score [1, 3]: 1.04 | thermal stability z-score ([1]; arsenate co-treatment: none): 0.371 | thermal stability z-score [2]: 0.0846

ERMP1 (UniProt Q7Z2K6)
thermal stability z-score [1, 3]: 0.0556 | thermal stability z-score ([1]; arsenate co-treatment: none): -0.119 | thermal stability z-score [2]: 0.227
